Assay results from publication PMC11750672, “The in vivo metabolic pathway of Deg-AZM and in vitro investigations into the contribution of drug metabolizing enzymes and drug transporters in the drug interactions of Deg-AZM, a clinical-stage new transgelin agonist” (Frontiers in Pharmacology, 2025).

What was measured:
[1] = target: T1, CYP2D6 (Homo sapiens, UniProt P10635); assay: CYP inhibition in HLMs; type: in vitro ADME; details: HLM 0.5 mg/mL, probe bufuralol, 30 min
T1 construct: from tissue; host or cells: human liver microsomes
Procedure: (§1) CYP inhibition potential of Deg-AZM was assessed in NADPH-fortified HLMs (0.5 mg/mL for CYP1A2, CYP2B6, CYP2C19 and CYP2D6 system, 0.035 mg/mL for CYP2C9 system, 0.05 mg/mL for CYP3A4 system, and 0.025 mg/mL for CYP2C8 system) using CYP probe substrates (same as the positive controls in HLM phenotyping assays). Deg-AZM in triplicates (0, 0.2, 0.6, 2.0, 6.0, 20, and 60 μM) was treated with each probe of CYP1A2 (20 min), CYP2B6 (20 min), CYP2C8 (10 min), CYP2C9 (60 min), CYP2C19 (45 min), CYP2D6 (30 min) and CYP3A4 (15 min). Probe substrate metabolites were analyzed by LC-MS/MS and the peak area ratios of analytes to internal standard (Indapamide) were calculated. The activity of the CYP450 enzyme subtype is directly proportional to the concentration of the corresponding probe substrate metabolites. The average of the measured values of each group was calculated, the control tube value was set as 100%, the residual probe substrate metabolites was calculated in the presence of positive inhibitors and Deg-AZM at series concentration. IC50 values were calculated by the dose-response model (nonlinear regression) in GraphPad Prism software.

[2] = target: T2, CYP3A4 (Homo sapiens, UniProt P08684); assay: CYP inhibition in HLMs; type: in vitro ADME; details: HLM 0.05 mg/mL, probe midazolam, 15 min
T2 construct: from tissue; host or cells: human liver microsomes
Procedure: as §1

[3] = target: T3, CYP2C19 (Homo sapiens, UniProt P33261); assay: CYP inhibition in HLMs; type: in vitro ADME; details: HLM 0.5 mg/mL, probe S-mephenytoin, 45 min
T3 construct: from tissue; host or cells: human liver microsomes
Procedure: as §1

[4] = tested on: T4, P-gp; assay: Bidirectional transport in Caco-2 cell monolayer with P-gp inhibitor quinidine; type: in vitro ADME, human; details: human, Caco-2, with quinidine 50 μM, (+) quinidine 50 μM, 37°C 1 h, n = 3
T4 construct: evaluated using Caco-2 cell monolayer both apical-to-basolateral (A-B) and basolateral-to-apical (B-A) directions; endogenous in cells; host or cells: Caco-2
Procedure: (§2) The human colon adenocarcinoma Caco-2 cell line was provided by Institute of Basic Medicine, Chinese Academy of Medical Sciences (Beijing, China). Caco-2 cells were cultured in a high sugar DMEM medium containing 10% (v/v) fetal bovine serum at 37°C and 5% CO2 incubator. Caco-2 cells (2.5 ×10^5/mL) was inoculated into Transwell polycarbonate membrane 12 well plate. The culture medium was changed every 2 days for the first 14 days, and then every day. After 21 consecutive days, fully differentiated cell monolayers were obtained for drug transport assays.
(§3) Transepithelial electrical resistance (TEER) was used to indicate monolayer integrity. The electrode of the Millcell ERS-2 voltammeter was placed in HBSS solution for 20 min to pre-balance. At the same time, the culture medium was removed from the Transwell culture plate, 0.5 mL of pre-heated HBSS solution was added into the Apical (AP) of transwell, 1.5 mL of pre-heated HBSS solution was added into the Basolateral (BL) of transwell. After that, the transwell was balanced at 37°C for 20 min and then replaced the HBSS solution with the pre-heated HBSS solution, the TEER value was measured finally. Caco-2 cell monolayers with TEER >350 Ω cm^2 which means that the cells have formed a tight monolayer, were used for the experiment. The TEER value was calculated according to the following formula: TEER=TEERT ‐ TEERc×A where TEERT represented the TEER value (Ω) of the measured Transwell chamber with Caco-2 cells, TEERC was the TEER value (Ω) of the transwell chamber in the control group, and A was the membrane area of the transwell cavity (1.12 cm^2 in this experiment).
(§4) In order to evaluate the usability of the Transwell model research, [^3H] Propranolol (0.5 μCi/mL) and [^14C] PEG4000 (1 μCi/mL) served as high-permeability and impermeability controls to verify the uptake direction on Caco-2 cell monolayer, respectively. Rhodamine 123 was used as a positive control for efflux mechanism in bidirectional transport assay on Caco-2 cell monolayer.
(§5) The transmembrane permeability of Deg-AZM (2, 10 or 50 µM) and the potential to inhibit P-gp by Deg-AZM (2, 10 or 50 µM) were evaluated using Caco-2 cell monolayer both apical-to-basolateral (A-B) and basolateral-to-apical (B-A) directions at 37°C for 1 h, the experiments were conducted using quinidine (50 μM) as the inhibitor for P-gp. At the end of incubation, receiver and donor samples were both diluted by assay buffer and analyzed by LC-MS/MS.

[5] = target: T5, P-gp (Homo sapiens, UniProt P08183); assay: as above; type: in vitro ADME; details: ER > 2, reduced after quinidine
T5 construct: evaluated using Caco-2 cell monolayer both apical-to-basolateral (A-B) and basolateral-to-apical (B-A) directions; endogenous in cells; host or cells: Caco-2
Procedure: as §2, §3, §4, §5

[6] = set-up: method as in Gu et al., 2024; details: rats, 0-24 h; ref Gu et al., 2024; cited from earlier work
[7] = Excretion and material balance in rats (urine, feces 0-24 h); type: in vivo; details: through the kidneys and urine
Procedure: The plasma samples at 0.167 h, 0.5 h, 3 h and 8 h after administration were obtained from the study of tissue distribution in rats ([Gu et al., 2024]). Urine, feces and bile samples at 0–24 h after administration were obtained from the excretion study of a single gavage administration of 25 mg/kg Deg-AZM in rats ([Gu et al., 2024]).
The types and proportions of metabolites in the excretion pathway were elucidated in this study. […] Based on the peak area in this study, the total amount of metabolites in urine and feces of rats was 0.589 times and 9.96 times that of the original form of Deg-AZM, respectively. The total amount of Deg-AZM excreted in its original form and various metabolites in urine and feces was 23.7% and 19.8% of the administered dose, respectively, with a material balance coefficient of 43.5%. Deg-AZM was mainly excreted in the form of its original form M0 (cumulative excretion fraction of 14.9%) and metabolite M2 (cumulative excretion fraction of 5.33%) through the kidneys and urine, and in the form of metabolite M1-2 (cumulative excretion fraction of 4.29%) and M2 (cumulative excretion fraction of 3.93%) through the intestines and feces. […] It is necessary to obtain standard samples of the main metabolites for accurate quantification or use isotope tracing techniques to further improve material balance research in the clinical stage.

T1 sequence (P10635 whole entry): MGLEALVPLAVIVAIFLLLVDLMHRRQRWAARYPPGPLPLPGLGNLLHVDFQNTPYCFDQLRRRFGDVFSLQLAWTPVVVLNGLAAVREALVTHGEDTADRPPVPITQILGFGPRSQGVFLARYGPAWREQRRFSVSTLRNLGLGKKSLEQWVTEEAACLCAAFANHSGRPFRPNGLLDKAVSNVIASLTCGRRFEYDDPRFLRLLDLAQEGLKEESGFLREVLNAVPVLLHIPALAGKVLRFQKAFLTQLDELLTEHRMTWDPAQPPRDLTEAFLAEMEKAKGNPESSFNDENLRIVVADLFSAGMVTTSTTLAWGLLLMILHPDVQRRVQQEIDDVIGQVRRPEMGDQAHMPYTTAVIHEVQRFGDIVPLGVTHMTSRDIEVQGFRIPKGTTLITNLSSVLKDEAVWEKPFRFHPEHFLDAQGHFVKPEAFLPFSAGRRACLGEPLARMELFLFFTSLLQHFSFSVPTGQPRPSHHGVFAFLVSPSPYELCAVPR
T2 sequence (P08684 whole entry): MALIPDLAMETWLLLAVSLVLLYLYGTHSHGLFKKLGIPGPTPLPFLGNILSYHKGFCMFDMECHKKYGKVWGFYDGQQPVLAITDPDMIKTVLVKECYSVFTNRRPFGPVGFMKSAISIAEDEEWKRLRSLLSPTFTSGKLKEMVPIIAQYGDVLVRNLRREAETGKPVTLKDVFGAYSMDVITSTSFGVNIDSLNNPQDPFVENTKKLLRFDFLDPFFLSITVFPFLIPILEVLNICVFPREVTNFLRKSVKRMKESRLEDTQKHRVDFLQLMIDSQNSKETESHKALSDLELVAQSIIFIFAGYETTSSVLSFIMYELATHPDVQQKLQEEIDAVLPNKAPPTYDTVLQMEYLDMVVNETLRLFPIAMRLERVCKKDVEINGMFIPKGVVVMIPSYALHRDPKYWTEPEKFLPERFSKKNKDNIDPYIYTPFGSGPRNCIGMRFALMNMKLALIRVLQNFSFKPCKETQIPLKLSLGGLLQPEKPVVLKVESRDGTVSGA
T3 sequence (P33261 whole entry): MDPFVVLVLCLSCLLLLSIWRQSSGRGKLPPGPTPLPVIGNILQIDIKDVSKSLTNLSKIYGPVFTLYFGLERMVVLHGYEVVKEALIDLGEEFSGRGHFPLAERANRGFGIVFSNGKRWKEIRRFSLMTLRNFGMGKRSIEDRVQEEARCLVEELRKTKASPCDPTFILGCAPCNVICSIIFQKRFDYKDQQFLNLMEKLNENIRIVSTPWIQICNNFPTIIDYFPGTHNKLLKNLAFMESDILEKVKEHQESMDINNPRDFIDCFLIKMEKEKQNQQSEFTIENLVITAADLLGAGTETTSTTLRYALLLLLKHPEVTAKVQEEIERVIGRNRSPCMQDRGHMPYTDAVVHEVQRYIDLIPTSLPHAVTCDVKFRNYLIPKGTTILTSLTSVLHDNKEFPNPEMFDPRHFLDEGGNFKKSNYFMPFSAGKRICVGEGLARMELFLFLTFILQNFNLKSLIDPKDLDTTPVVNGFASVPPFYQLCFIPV
T5 sequence (P08183 whole entry): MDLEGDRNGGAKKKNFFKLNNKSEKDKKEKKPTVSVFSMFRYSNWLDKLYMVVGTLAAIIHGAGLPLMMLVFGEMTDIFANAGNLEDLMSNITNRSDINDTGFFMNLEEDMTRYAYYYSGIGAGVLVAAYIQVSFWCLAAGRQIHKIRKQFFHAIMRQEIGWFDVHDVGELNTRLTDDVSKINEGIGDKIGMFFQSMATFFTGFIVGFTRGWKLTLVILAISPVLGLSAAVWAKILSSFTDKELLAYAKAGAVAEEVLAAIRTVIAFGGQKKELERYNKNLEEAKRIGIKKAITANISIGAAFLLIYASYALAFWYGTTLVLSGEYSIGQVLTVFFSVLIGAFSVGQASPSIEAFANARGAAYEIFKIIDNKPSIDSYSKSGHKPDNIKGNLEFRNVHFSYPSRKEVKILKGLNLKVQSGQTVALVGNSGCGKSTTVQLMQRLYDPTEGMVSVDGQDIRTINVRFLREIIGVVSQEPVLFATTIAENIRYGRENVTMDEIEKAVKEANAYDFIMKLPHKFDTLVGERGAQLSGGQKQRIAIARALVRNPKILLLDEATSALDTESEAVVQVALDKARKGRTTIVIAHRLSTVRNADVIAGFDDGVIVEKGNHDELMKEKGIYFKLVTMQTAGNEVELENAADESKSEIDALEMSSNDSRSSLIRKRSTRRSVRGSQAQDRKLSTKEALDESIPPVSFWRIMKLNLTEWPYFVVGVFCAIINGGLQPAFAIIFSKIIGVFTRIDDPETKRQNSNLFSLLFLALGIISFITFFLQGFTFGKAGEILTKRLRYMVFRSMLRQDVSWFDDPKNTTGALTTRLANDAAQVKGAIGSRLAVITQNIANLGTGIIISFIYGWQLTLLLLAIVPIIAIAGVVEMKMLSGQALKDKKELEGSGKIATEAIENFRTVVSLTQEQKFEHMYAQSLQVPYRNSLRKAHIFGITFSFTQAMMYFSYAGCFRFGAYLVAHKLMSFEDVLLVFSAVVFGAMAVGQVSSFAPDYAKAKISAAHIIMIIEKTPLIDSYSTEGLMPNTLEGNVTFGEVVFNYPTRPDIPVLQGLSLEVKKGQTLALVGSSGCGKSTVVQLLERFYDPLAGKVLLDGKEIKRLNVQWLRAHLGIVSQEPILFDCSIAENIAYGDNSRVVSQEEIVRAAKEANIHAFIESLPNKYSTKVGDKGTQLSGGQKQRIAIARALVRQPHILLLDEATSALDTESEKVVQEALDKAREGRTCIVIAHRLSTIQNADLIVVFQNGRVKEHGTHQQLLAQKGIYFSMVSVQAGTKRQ

- IC50 [1]: 7.89 µM
- IC50 [2]: > 60 µM
- IC50 [3]: > 60 µM
- Papp A→B at 1 h, 2 μM ([4]; 2 μM): 8.23 ± 0.911 nm/s
- Papp B→A at 1 h, 2 μM ([4]; 2 μM): 6.17 ± 0.488 nm/s
- Papp A→B at 1 h, 10 μM ([4]; 10 μM): 4.71 ± 0.908 nm/s
- Papp B→A at 1 h, 10 μM ([4]; 10 μM): 5.2 ± 1.19 nm/s
- Papp A→B at 1 h, 50 μM ([4]; 50 μM): 5.89 ± 0.315 nm/s
- Papp B→A at 1 h, 50 μM ([4]; 50 μM): 5.86 ± 1.17 nm/s
- Cumulative excretion fraction, urine [7]: 14.9%
SMILES: CCC1OC(=O)C(C)C(O)C(C)C(O)C(C)(O)CC(C)CN(C)C(C)C(O)C1(C)O (stereo not shown) [Deg-AZM, Deglycosylated azithromycin]
- P-gp substrate assessment [5]: might be the substrate of intestinal efflux transporter P-gp
- Amount excreted in original form from feces [6]: 1.81 % of the administered dose
- Amount excreted in original form from urine [6]: 14.9 % of the administered dose
